This is an account of results in publication PMC6199744, “Development of Chemical Proteomics for the Folateome and Analysis of the Kinetoplastid Folateome” (ACS Infectious Diseases, 2018).

Where two headings read alike, the source gives them in different places.

What all share (type): binding
Assay [1] has as its target T1, HeLa cell extract proteins (Homo sapiens, UniProt Q8TDH9).
T1 construct: endogenous in cells; host or cells: HeLa cell extract
T1 sequence (Q8TDH9 1-187): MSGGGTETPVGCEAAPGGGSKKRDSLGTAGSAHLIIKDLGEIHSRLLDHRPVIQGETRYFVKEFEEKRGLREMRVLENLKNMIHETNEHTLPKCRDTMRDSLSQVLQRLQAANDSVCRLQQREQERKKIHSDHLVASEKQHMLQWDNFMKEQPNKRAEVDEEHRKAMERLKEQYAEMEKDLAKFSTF
The conditions noted are these: protein MUTED; HeLa.

The target in assay [2] is T2, HeLa cell extract proteins (Homo sapiens, UniProt Q8WUK0).
T2 construct: endogenous in cells; host or cells: HeLa cell extract
T2 sequence (Q8WUK0 28-201): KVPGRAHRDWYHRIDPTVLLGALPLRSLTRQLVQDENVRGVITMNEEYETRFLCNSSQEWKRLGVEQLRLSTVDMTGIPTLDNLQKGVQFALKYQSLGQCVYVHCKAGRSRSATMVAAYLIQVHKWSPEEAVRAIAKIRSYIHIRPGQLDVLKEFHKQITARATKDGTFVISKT
The conditions noted are these: captured protein PTPMT1; HeLa.

Assay [3] concerns the target T3, HeLa cell extract proteins (Homo sapiens, UniProt O75396).
T3 construct: endogenous in cells; host or cells: HeLa cell extract
T3 sequence (O75396 1-215): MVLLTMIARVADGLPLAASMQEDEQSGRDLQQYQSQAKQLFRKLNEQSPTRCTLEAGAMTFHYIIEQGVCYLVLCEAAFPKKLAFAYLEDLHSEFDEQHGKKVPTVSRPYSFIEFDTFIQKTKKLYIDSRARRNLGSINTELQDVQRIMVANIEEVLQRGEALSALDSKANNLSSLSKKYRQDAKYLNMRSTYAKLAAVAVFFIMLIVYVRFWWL
The conditions noted are these: protein SEC22B; HeLa.

Assay [4] deals with T4, HeLa cell extract proteins (Homo sapiens, UniProt P17655).
T4 construct: endogenous in cells; host or cells: HeLa cell extract
T4 sequence (P17655 1-700): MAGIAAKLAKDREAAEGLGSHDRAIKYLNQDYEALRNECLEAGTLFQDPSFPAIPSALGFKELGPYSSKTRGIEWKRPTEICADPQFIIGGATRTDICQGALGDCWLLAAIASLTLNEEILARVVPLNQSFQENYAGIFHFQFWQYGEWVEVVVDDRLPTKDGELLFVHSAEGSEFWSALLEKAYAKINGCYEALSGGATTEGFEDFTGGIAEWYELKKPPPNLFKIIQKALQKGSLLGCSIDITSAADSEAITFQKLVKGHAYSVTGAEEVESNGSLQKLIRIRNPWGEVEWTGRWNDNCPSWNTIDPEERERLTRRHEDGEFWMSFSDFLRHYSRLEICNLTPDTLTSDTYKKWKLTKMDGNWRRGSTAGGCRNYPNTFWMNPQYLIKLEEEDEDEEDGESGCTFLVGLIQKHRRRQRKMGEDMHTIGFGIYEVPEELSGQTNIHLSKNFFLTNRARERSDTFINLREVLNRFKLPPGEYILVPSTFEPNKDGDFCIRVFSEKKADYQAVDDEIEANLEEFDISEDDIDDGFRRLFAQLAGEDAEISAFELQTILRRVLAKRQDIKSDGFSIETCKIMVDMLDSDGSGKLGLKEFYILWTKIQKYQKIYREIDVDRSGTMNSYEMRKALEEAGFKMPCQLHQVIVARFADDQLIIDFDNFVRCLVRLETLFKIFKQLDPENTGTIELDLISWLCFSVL
As to conditions: protein CAPN2; HeLa.

The target in assay [5] is T5, HeLa cell extract proteins (Homo sapiens, UniProt P48729).
T5 construct: endogenous in cells; host or cells: HeLa cell extract
T5 sequence (P48729 whole entry): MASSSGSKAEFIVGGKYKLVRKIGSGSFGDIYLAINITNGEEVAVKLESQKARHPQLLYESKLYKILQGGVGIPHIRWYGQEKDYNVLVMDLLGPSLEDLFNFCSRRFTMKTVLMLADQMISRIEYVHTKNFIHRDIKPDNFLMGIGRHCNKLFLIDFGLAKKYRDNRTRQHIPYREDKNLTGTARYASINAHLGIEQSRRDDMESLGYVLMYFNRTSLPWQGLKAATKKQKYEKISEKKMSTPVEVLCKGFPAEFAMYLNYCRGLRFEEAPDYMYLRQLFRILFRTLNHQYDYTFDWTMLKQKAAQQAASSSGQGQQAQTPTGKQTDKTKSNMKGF
The conditions noted are these: protein CSNK1A1; HeLa.

For assay [6], the target named is T6, HeLa cell extract proteins (Homo sapiens, UniProt Q9Y5M8).
T6 construct: endogenous in cells; host or cells: HeLa cell extract
T6 sequence (Q9Y5M8 1-271): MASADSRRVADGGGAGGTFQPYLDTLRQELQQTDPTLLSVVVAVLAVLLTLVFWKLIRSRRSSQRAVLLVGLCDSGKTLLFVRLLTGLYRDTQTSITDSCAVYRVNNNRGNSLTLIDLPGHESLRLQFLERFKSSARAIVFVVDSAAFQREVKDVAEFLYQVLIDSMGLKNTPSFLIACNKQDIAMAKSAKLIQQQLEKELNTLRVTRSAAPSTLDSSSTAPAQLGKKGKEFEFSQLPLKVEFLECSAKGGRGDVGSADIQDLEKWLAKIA
As to conditions: captured protein SRPRB; HeLa.

Assay [7] concerns the target T7, HeLa cell extract proteins (Homo sapiens, UniProt P50748).
T7 construct: endogenous in cells; host or cells: HeLa cell extract
As to conditions: HeLa; protein KNTC1.

The target of assay [8] is T8, HeLa cell extract proteins (Homo sapiens, UniProt O95848).
T8 construct: endogenous in cells; host or cells: HeLa cell extract
T8 sequence (O95848 1-222): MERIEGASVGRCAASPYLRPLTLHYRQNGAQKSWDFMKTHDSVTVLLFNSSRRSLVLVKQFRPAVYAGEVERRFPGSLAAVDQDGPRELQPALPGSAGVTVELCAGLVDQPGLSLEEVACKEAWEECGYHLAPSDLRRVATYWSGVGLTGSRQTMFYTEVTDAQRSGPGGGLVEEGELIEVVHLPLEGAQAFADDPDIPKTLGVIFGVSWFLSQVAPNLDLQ

T7 sequence (P50748 whole entry): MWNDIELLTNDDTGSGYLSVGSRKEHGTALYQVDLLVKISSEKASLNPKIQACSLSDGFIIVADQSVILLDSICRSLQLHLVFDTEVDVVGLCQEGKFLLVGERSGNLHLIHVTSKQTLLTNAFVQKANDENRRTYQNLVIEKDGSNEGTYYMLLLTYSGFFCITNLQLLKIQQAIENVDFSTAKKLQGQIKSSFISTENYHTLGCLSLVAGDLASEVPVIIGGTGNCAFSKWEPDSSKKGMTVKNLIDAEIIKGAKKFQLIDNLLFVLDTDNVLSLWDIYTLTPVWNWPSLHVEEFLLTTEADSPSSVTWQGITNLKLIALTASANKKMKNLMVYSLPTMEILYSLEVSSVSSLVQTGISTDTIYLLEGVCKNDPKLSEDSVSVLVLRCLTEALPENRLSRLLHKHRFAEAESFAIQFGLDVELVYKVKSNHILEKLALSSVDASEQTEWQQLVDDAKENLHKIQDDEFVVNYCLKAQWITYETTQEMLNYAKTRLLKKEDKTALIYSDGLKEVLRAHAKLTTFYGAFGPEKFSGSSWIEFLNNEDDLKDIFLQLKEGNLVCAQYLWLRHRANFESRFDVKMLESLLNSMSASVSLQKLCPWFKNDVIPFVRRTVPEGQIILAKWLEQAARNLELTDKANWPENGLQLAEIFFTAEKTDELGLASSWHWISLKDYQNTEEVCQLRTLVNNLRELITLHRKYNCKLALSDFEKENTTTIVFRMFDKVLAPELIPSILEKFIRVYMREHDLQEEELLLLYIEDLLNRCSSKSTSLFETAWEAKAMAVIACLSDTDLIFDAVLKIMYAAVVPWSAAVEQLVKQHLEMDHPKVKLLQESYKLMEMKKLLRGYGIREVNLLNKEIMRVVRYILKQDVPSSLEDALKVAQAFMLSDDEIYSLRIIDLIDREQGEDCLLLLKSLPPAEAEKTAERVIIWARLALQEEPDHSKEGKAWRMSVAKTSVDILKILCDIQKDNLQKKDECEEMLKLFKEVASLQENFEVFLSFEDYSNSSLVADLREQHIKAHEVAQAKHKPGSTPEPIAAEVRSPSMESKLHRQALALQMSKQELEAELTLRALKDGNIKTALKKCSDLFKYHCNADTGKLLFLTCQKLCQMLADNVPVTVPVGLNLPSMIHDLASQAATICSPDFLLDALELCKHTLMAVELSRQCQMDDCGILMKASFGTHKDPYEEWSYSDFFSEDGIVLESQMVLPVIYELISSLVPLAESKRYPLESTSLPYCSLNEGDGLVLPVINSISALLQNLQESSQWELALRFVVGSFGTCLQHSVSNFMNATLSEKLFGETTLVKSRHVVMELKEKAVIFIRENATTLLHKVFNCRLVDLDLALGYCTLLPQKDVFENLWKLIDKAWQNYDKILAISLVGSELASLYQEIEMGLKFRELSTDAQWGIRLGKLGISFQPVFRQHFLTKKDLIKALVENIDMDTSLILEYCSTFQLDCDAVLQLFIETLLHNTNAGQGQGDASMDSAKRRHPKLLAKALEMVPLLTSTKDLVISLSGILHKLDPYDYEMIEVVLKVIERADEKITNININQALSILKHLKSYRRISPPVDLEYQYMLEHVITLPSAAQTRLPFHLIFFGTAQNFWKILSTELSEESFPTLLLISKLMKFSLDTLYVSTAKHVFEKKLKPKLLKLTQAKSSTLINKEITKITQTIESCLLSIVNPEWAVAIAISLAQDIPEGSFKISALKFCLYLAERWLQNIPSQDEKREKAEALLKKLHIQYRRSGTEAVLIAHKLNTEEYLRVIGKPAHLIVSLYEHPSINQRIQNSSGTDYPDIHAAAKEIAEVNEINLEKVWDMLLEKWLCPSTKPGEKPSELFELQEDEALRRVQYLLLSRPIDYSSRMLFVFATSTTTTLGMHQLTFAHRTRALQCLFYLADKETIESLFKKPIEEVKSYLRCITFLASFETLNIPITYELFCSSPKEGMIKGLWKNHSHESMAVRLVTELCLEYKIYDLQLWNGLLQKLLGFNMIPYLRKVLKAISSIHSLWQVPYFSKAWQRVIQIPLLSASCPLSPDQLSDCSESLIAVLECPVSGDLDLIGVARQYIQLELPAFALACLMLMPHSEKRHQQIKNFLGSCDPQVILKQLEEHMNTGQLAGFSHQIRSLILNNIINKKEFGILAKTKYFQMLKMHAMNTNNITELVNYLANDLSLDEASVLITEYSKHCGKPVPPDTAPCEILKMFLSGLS

Take `Nc1nc2cccc(-c3ccccc3)c2n1Cc1ccc(Cl)c(Cl)c1` [compound 3]: the “fold changes relative to vehicle control” value is 0.99 in assay [1]; 0.93 in assay [2]; 0.89 in assay [3]; 0.91 in assay [4]; 1.06 in assay [5]; 0.91 in assay [6]. The “fold changes relative to vehicle control” value in assay [7] was 1.17.

`NCCOCCOCC(=O)Nc1nc2ncc(CNc3ccc(C(=O)NC(CCC(=O)O)C(=O)O)cc3)nc2c(=O)[nH]1` (stereo not shown) [compound 6]: the “fold changes relative to vehicle control” value in assay [8] (protein NUDT14, HeLa) came out at 0.8.

Take `Nc1nc2[nH]cc(CCc3ccc(C(=O)N[C@@H](CCC(=O)O)C(=O)O)cc3)c2c(=O)[nH]1` [PTX, pemetrexed]: the “fold changes relative to vehicle control” value in assay [8] worked out at 0.49.

For `Nc1nc2c(c(=O)[nH]1)N(C=O)C(CNc1ccc(C(=O)N[C@@H](CCC(=O)O)C(=O)O)cc1)CN2` (stereo partly shown) [LEU, leucovorin], in assay [8] (protein NUDT14, HeLa), the “fold changes relative to vehicle control” value is given as 1.01.

For the compound `CCCCCCOc1ccc(Cc2cnc(N)nc2N)cc1` [compound 1], the “fold changes relative to vehicle control” value is on record as 1.09 in assay [1]; 0.88 in assay [2]; 0.96 in assay [3]; 0.97 in assay [4]; 0.93 in assay [5]; 1.12 in assay [6]. Besides, in assay [7], the “fold changes relative to vehicle control” value came to 1.15.

`NCCCNc1ccc(C(=O)NC(CCC(=O)O)C(=O)O)cc1` (stereo not shown) [compound 7]: the “fold changes relative to vehicle control” value in assay [8] (protein NUDT14, HeLa) turned out to be 0.97.

`CCCCCCOc1cccc(Cc2cnc(N)nc2N)c1` [compound 2]: the “fold changes relative to vehicle control” value was 1.65 in assay [1]; 0.91 in assay [2]; 1.41 in assay [3]; 1.23 in assay [4]; 1.17 in assay [5]; 1.08 in assay [6]. For the same compound, the “fold changes relative to vehicle control” value in assay [7] was 1.13.
